We go through six compounds from patent US20210115104A1, “AMYLIN ANALOGUES” (Zealand Pharma A/S, priority 2015, published 2021).

Each structure is given as a SMILES string. *1 amine or outer side, *2 acyl side, *3 side chain or, on linkers, in order; H or OH if unused. Where a SMILES comes first, the peptide text is derived from it. Bridges are numbered along the chain shown (N, C = ends). [ ]: non-standard residue; d: D form. The star is where a group is joined. C20 diacid = O=C(O)CCCCCCCCCCCCCCCCCCC(=O)*; γGlu = O=C(O)[C@H](CCC(=O)[*:2])N[*:1]; Hyp = O=C(O)[C@@H]1C[C@@H](O)CN1; NMeI = CC[C@H](C)[C@H](NC)C(=O)O; Aad = N[C@@H](CCCC(=O)O)C(=O)O; Sar = CNCC(=O)O

The target of test [1] is T1, human amylin receptor 3 (hAMYR3), hCTR2 co-expressed with hRAMP3 (Homo sapiens, UniProt O60896+P30988).
T1 construct: expressed in transfected cells
T1 sequence (P30988 25-474): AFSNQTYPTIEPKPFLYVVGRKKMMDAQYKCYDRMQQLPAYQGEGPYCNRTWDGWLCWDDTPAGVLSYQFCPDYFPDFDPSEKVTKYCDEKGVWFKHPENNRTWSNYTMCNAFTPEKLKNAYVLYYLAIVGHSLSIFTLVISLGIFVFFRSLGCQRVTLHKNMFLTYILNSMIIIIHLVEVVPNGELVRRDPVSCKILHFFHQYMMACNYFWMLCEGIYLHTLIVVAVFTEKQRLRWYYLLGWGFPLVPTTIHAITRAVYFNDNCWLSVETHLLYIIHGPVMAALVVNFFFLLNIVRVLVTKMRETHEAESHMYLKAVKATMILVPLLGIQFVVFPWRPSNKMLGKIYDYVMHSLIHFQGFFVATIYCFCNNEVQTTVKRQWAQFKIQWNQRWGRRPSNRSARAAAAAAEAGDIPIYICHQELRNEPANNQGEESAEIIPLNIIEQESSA
T1 sequence (O60896 24-148 partner): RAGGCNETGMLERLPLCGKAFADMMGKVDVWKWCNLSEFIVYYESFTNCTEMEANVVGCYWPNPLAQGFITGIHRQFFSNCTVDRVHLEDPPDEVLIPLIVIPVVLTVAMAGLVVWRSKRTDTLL
The test is described as follows: hAMYR3 cAMP assay (AlphaScreen) in COS7 cells. The format is cell-based. To be noted: cAMP induction, COS7 cells expressing hAMYR3; Table 1; read-out: hAMYR3 EC50. The method, boiled down:
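EC50 values derive from 4PL curve fits of cAMP (AlphaScreen) in lysates of RAMP-naive COS7 cells stably carrying hCTR2 plus hRAMP3. Peptide dilution series were applied for 15 min at 37 °C in pH 7.4 Tyrode buffer containing 100 µM IBMX and 0.1% casein.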

The target in test [2] is T2, human calcitonin receptor (hCTR2) (Homo sapiens, UniProt P30988).
T2 construct: expressed in transfected cells
T2 sequence (P30988 25-474): T1 sequence (P30988 25-474)
Briefly: hCTR2 cAMP assay (AlphaScreen) in COS7 cells. The format is cell-based. To be noted: cAMP induction, COS7 cells expressing hCTR2; Table 1; read-out: hCTR2 EC50. The method in brief: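 cAMP induction, read by AlphaScreen after lysis, gives EC50 values via 4PL curve fitting. Peptides were applied at rising concentrations for 15 min at 37 °C, with IBMX and 0.1% casein in HEPES-buffered Tyrode pH 7.4, to COS7 cells (no endogenous RAMPs) stably expressing human CTR2.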

As for `CC[C@H](C)[C@@H](C(=O)N[C@@H](CC(C)C)C(=O)N[C@@H](CO)C(=O)N[C@@H](CO)C(=O)N[C@H](C(=O)N[C@@H](CCC(=O)O)C(=O)N[C@H](C(=O)NCC(=O)N[C@@H](CO)C(=O)N[C@@H](CO)C(=O)N[C@H](C(=O)N1C[C@H](O)C[C@H]1C(N)=O)[C@@H](C)O)C(C)C)[C@@H](C)O)N(C)C(=O)[C@H](C)NC(=O)CN(C)C(=O)[C@H](Cc1ccccc1)NC(=O)[C@H](CO)NC(=O)[C@H](CO)NC(=O)[C@H](CCCNC(=N)N)NC(=O)[C@H](CCC(N)=O)NC(=O)[C@H](CC(C)C)NC(=O)[C@H](Cc1ccccc1)NC(=O)[C@H](CCCC(=O)O)NC(=O)[C@H](C)NC(=O)[C@H](CC(C)C)NC(=O)[C@H](CCCNC(=N)N)NC(=O)[C@H](CCC(N)=O)NC(=O)[C@@H](NC(=O)[C@H](C)NC(=O)[C@@H]1CSSC[C@H](NC(=O)[C@H](CCCNC(=N)N)NC(=O)CC[C@H](NC(=O)CCCCCCCCCCCCCCCCCCC(=O)O)C(=O)O)C(=O)N[C@@H](CC(N)=O)C(=O)N[C@@H]([C@@H](C)O)C(=O)N[C@@H](C)C(=O)N[C@@H]([C@@H](C)O)C(=O)N1)[C@@H](C)O` [Compound 87, [19CD]-isoGlu-R-C( )-NTAT-C( )-ATQRLA-Aad-FLQRSSF-Gly(Me)-A-Ile(Me)-LSSTEVGSST-Hyp-NH2] ({C20 diacid-γGlu}-RCNTATCATQRLA[Aad]FLQRSSF[Sar]A[NMeI]LSSTEVGSST[Hyp]-NH2; disulfide 2-7), the half-maximal effective concentration (EC50) in test [1] came to 0.13 nM; in test [2], 0.2 nM.

As for `CC[C@H](C)[C@@H](C(=O)N[C@@H](CC(C)C)C(=O)N[C@@H](CO)C(=O)N[C@@H](CO)C(=O)N[C@H](C(=O)N[C@@H](CCC(=O)O)C(=O)N[C@H](C(=O)NCC(=O)N[C@@H](CO)C(=O)N[C@@H](CC(N)=O)C(=O)N[C@H](C(=O)N1CCC[C@H]1C(N)=O)[C@@H](C)O)C(C)C)[C@@H](C)O)N(C)C(=O)[C@H](C)NC(=O)CN(C)C(=O)[C@H](Cc1ccccc1)NC(=O)[C@H](CO)NC(=O)[C@H](CO)NC(=O)[C@H](CCCNC(=N)N)NC(=O)[C@H](CCC(N)=O)NC(=O)[C@H](CC(C)C)NC(=O)[C@H](Cc1ccccc1)NC(=O)[C@H](Cc1c[nH]cn1)NC(=O)[C@H](C)NC(=O)[C@H](CC(C)C)NC(=O)[C@H](CCCNC(=N)N)NC(=O)[C@H](CCC(=O)O)NC(=O)[C@@H](NC(=O)[C@H](C)NC(=O)[C@@H]1CSSC[C@H](NC(=O)[C@H](CCCNC(=N)N)NC(=O)CC[C@H](NC(=O)CCCCCCCCCCCCCCCCCCC(=O)O)C(=O)O)C(=O)NCC(=O)N[C@@H]([C@@H](C)O)C(=O)N[C@@H](C)C(=O)N[C@@H]([C@@H](C)O)C(=O)N1)[C@@H](C)O` [Compound 78, [19CD]-isoGlu-R-C( )-GTAT-C( )-ATERLAHFLQRSSF-Gly(Me)-A-Ile(Me)-LSSTEVGSNTP-NH2] ({C20 diacid-γGlu}-RCGTATCATERLAHFLQRSSF[Sar]A[NMeI]LSSTEVGSNTP-NH2; disulfide 2-7), the EC50 came out at 0.24 nM in test [1] and 0.15 nM in test [2].

Take `CC[C@H](C)[C@@H](C(=O)N[C@@H](CC(C)C)C(=O)N[C@@H](CO)C(=O)N[C@@H](CO)C(=O)N[C@H](C(=O)N[C@@H](CCC(=O)O)C(=O)N[C@H](C(=O)NCC(=O)N[C@@H](CO)C(=O)N[C@@H](Cc1ccccc1)C(=O)N[C@H](C(=O)N1CCC[C@H]1C(N)=O)[C@@H](C)O)C(C)C)[C@@H](C)O)N(C)C(=O)[C@H](C)NC(=O)CN(C)C(=O)[C@H](Cc1ccccc1)NC(=O)[C@H](CO)NC(=O)[C@H](CO)NC(=O)[C@H](CCCNC(=N)N)NC(=O)[C@H](CC(N)=O)NC(=O)[C@H](CC(C)C)NC(=O)[C@H](Cc1ccccc1)NC(=O)[C@H](Cc1c[nH]cn1)NC(=O)[C@H](C)NC(=O)[C@H](CC(C)C)NC(=O)[C@H](CCCNC(=N)N)NC(=O)[C@H](CCC(=O)O)NC(=O)[C@@H](NC(=O)[C@H](C)NC(=O)[C@@H]1CSSC[C@H](NC(=O)[C@H](CCCNC(=N)N)NC(=O)CC[C@H](NC(=O)CCCCCCCCCCCCCCCCCCC(=O)O)C(=O)O)C(=O)NCC(=O)N[C@@H]([C@@H](C)O)C(=O)N[C@@H](C)C(=O)N[C@@H]([C@@H](C)O)C(=O)N1)[C@@H](C)O` [Compound 40, [19CD]-isoGlu-R-C( )-GTAT-C( )-ATERLAHFLNRSSF-Gly(Me)-A-Ile(Me)-LSSTEVGSFTP-NH2] ({C20 diacid-γGlu}-RCGTATCATERLAHFLNRSSF[Sar]A[NMeI]LSSTEVGSFTP-NH2; disulfide 2-7): the half-maximal effective concentration (EC50) in test [1] was found to be 0.19 nM; in test [2], 0.12 nM.

As to `CC[C@H](C)[C@@H](C(=O)N[C@@H](CC(C)C)C(=O)N[C@@H](CO)C(=O)N[C@@H](CO)C(=O)N[C@H](C(=O)N[C@@H](CCC(=O)O)C(=O)N[C@H](C(=O)NCC(=O)N[C@@H](CO)C(=O)N[C@@H](CCCC(=O)O)C(=O)N[C@H](C(=O)N1C[C@H](O)C[C@H]1C(N)=O)[C@@H](C)O)C(C)C)[C@@H](C)O)N(C)C(=O)[C@H](C)NC(=O)CN(C)C(=O)[C@H](Cc1ccccc1)NC(=O)[C@H](CO)NC(=O)[C@H](CO)NC(=O)[C@H](CCCNC(=N)N)NC(=O)[C@H](CCC(N)=O)NC(=O)[C@H](CC(C)C)NC(=O)[C@H](Cc1ccccc1)NC(=O)[C@H](Cc1c[nH]cn1)NC(=O)[C@H](C)NC(=O)[C@H](CC(C)C)NC(=O)[C@H](CCCNC(=N)N)NC(=O)[C@H](CCC(N)=O)NC(=O)[C@@H](NC(=O)[C@H](C)NC(=O)[C@@H]1CSSC[C@H](NC(=O)[C@H](CCCNC(=N)N)NC(=O)CC[C@H](NC(=O)CCCCCCCCCCCCCCCCCCC(=O)O)C(=O)O)C(=O)N[C@@H](CC(N)=O)C(=O)N[C@@H]([C@@H](C)O)C(=O)N[C@@H](C)C(=O)N[C@@H]([C@@H](C)O)C(=O)N1)[C@@H](C)O` [Compound 75, [19CD]-isoGlu-R-C( )-NTAT-C( )-ATQRLAHFLQRSSF-Gly(Me)-A-Ile(Me)-LSSTEVGS-Aad-T-Hyp-NH2] ({C20 diacid-γGlu}-RCNTATCATQRLAHFLQRSSF[Sar]A[NMeI]LSSTEVGS[Aad]T[Hyp]-NH2; disulfide 2-7), the concentration for a half-maximal effect (EC50) was found to be 0.26 nM in test [1] and 0.36 nM in test [2].

Regarding `CC[C@H](C)[C@@H](C(=O)N[C@@H](CC(C)C)C(=O)N[C@@H](CO)C(=O)N[C@@H](CO)C(=O)N[C@H](C(=O)N[C@@H](CCC(=O)O)C(=O)N[C@H](C(=O)NCC(=O)N[C@@H](CO)C(=O)N[C@@H](CO)C(=O)N[C@H](C(=O)N1C[C@H](O)C[C@H]1C(N)=O)[C@@H](C)O)C(C)C)[C@@H](C)O)N(C)C(=O)[C@H](C)NC(=O)CN(C)C(=O)[C@H](Cc1ccccc1)NC(=O)[C@H](CO)NC(=O)[C@H](CO)NC(=O)[C@H](CCCNC(=N)N)NC(=O)[C@H](CCC(N)=O)NC(=O)[C@H](CC(C)C)NC(=O)[C@H](Cc1ccccc1)NC(=O)[C@H](Cc1c[nH]cn1)NC(=O)[C@H](C)NC(=O)[C@H](CC(C)C)NC(=O)[C@H](CCCNC(=N)N)NC(=O)[C@H](CCC(=O)O)NC(=O)[C@@H](NC(=O)[C@H](C)NC(=O)[C@@H]1CSSC[C@H](NC(=O)[C@H](CCCNC(=N)N)NC(=O)CC[C@H](NC(=O)CCCCCCCCCCCCCCCCCCC(=O)O)C(=O)O)C(=O)N2CCC[C@H]2C(=O)N[C@@H]([C@@H](C)O)C(=O)N[C@@H](C)C(=O)N[C@@H]([C@@H](C)O)C(=O)N1)[C@@H](C)O` [Compound 70, [19CD]-isoGlu-R-C( )-PTAT-C( )-ATERLAHFLQRSSF-Gly(Me)-A-Ile(Me)-LSSTEVGSST-Hyp-NH2] ({C20 diacid-γGlu}-RCPTATCATERLAHFLQRSSF[Sar]A[NMeI]LSSTEVGSST[Hyp]-NH2; disulfide 2-7), the EC50 in test [1] amounted to 0.36 nM; in test [2], 0.35 nM.

Regarding `CC[C@H](C)[C@@H](C(=O)N[C@@H](CC(C)C)C(=O)N[C@@H](CO)C(=O)N[C@@H](CO)C(=O)N[C@H](C(=O)N[C@@H](CCC(=O)O)C(=O)N[C@H](C(=O)NCC(=O)N[C@@H](CO)C(=O)N[C@H](C(=O)N[C@H](C(=O)N1CCC[C@H]1C(N)=O)[C@@H](C)O)[C@@H](C)O)C(C)C)[C@@H](C)O)N(C)C(=O)[C@H](C)NC(=O)CN(C)C(=O)[C@H](Cc1ccccc1)NC(=O)[C@H](CO)NC(=O)[C@H](CO)NC(=O)[C@H](CCCNC(=N)N)NC(=O)[C@H](CCC(N)=O)NC(=O)[C@H](CC(C)C)NC(=O)[C@H](Cc1ccccc1)NC(=O)[C@H](CC(=O)O)NC(=O)[C@H](C)NC(=O)[C@H](CC(C)C)NC(=O)[C@H](CCCNC(=N)N)NC(=O)[C@H](CCC(N)=O)NC(=O)[C@@H](NC(=O)[C@H](C)NC(=O)[C@@H]1CSSC[C@H](NC(=O)[C@H](CCCNC(=N)N)NC(=O)CC[C@H](NC(=O)CCCCCCCCCCCCCCCCCCC(=O)O)C(=O)O)C(=O)N[C@@H](CC(N)=O)C(=O)N[C@@H]([C@@H](C)O)C(=O)N[C@@H](C)C(=O)N[C@@H]([C@@H](C)O)C(=O)N1)[C@@H](C)O` [Compound 82, [19CD]-isoGlu-R-C( )-NTAT-C( )-ATQRLADFLQRSSF-Gly(Me)-A-Ile(Me)-LSSTEVGSTTP-NH2] ({C20 diacid-γGlu}-RCNTATCATQRLADFLQRSSF[Sar]A[NMeI]LSSTEVGSTTP-NH2; disulfide 2-7), the EC50 in test [1] came out at 0.53 nM; in test [2], 0.21 nM.
